Test results from patent US12622899B2 (PureTech LYT 100, Inc., priority 2018, dated 2026).

What was measured:
CYP1A2 = molecular target: T1, CYP1A2 (Homo sapiens, UniProt P05177); experiment: In vitro stability with recombinant human CYP1A2; assay type: in vitro ADME; settings: recombinant human isozyme; read-out: t1/2 following incubation with CYP1A2 (converted)
T1 construct: host or cells: heterologous cell systems (not specified)
T1 sequence (P05177 1-516): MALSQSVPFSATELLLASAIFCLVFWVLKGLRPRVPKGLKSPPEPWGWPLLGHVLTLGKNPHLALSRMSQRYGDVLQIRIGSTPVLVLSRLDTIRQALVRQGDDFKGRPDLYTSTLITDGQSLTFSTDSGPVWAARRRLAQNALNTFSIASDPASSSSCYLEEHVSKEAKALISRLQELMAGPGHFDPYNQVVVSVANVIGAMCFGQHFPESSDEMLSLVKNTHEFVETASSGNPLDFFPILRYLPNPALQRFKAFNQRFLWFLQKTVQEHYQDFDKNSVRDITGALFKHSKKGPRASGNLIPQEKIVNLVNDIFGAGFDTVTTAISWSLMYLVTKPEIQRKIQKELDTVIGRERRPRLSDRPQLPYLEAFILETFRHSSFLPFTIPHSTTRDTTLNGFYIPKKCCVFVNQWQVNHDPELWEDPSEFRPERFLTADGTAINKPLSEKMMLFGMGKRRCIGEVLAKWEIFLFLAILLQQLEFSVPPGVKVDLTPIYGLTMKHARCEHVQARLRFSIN
Description: The half-life (t½) of each test article was determined.

[1] = system: patients with COVID-19 respiratory disease; experiment: Phase 2 trial of LYT-100 in post-acute COVID-19 respiratory disease: tolerability; assay type: in vivo, human; settings: COVID-19 study
Description: An initial dosage of 500 mg BID was given the first 3 days of dosing, followed by 750 mg BID thereafter.

[2] = system: patients with Idiopathic Pulmonary Fibrosis (IPF); experiment: IPF trial Part A (26-week double-blind): efficacy, FVC and FVCpp, time to progression; assay type: in vivo, human; settings: for FVC, Bayesian Posterior Mean Difference vs. Placebo / FVC, Frequentist Adjusted Mean Difference vs. Placebo / FVCpp, Bayesian Posterior Mean comparison vs. Placebo / FVCpp, Frequentist Adjusted Mean comparison vs. Placebo / Treatment effect, FVC, versus placebo / Treatment effect, FVCpp, versus placebo: 26 weeks
Description: The primary objective was to determine the dose(s) to carry into Phase 3. […] Patients were randomized to one of the four treatments in a 1:1:1:1 ratio and stratified based on prior exposure to nintedanib (<6 months) versus nintedanib-naïve patients. Patients who completed the Double-blind Treatment Period (Part A) were offered participation in the Long-term Extension (Part B). […] For patients who participated in Part B, the follow-up was conducted at the end of Part B. A graphical illustration of an embodiment of the trial design is provided as FIG. 24B.
Doses were adjusted according to safety and tolerability to avoid toxicity.
Note that, for all treatment groups, the first 7 days of treatment, one capsule was taken TID., Day 8 through Day 14, two capsules TID., and Day 15 forward, 3 capsules TID.
Weekly home FVC was assessed with an individual spirometer, which was supplied to each patient. The site used its own equipment for in-clinic FVC assessments. Spirometry measurements were performed according to the American Thoracic Society/European Respiratory Society (“An Official American Thoracic Society and European Respiratory Society Technical Statement Technical Statement” Am J Respir Crit Care Med. 2019; 200(8):e71-e83) and the study specific Pulmonary Function Manual, at timepoints specified in the Schedule of Assessments. Spirometry was conducted while the patient was in a seated position. The test was done in order to achieve three acceptable FVC measurements (three curves to be provided), and the best result selected according to the guidelines. The best of three efforts was defined as the highest FVC, obtained on any of the three blows meeting the ATS/ERS/JRS/ALAT 2019 criteria (Graham et al, 2019) with preferably a maximum of eight attempts.
Pulmonary function was measured in a standardized manner and results transmitted electronically during the visit immediately after performing the spirometry and evaluated by a central reader. In case the acceptability and repeatability criteria as specified by ATS/ERS/JRS/ALAT guidelines were not met, a repeat spirometry was performed during the same visit.
The primary efficacy endpoint was the rate of decline in FVC mL over 26 weeks. In addition, decline in FVC % predicted from baseline to Week 26 and by >10% and >5% was assessed.
The secondary endpoint was comparison of FVC % predicted change from baseline to Week 26.
The following parameters were measured or calculated as part of the spirometry assessment: • FVC (mL) and FVC % predicted (FVCpp) • FEV1 (mL) and percent predicted forced expiratory volume in 1 second (FEV1% p) • FEV1/FVC ratio • Forced expiratory flow between 25% and 75% of exhaled volume (FEF25-75) The ‘2012 Global Lung Function Initiative Equations’ was used to calculate the predicted values (Quanjer et al, “Multi-ethnic reference values for spirometry for the 3-95 year age range: the global lung function 2012 equations: Report of the Global Lung Function Initiative (GLI), ERS Task Force to establish improved Lung Function Reference Values.,” Eur Respir J, vol. 40(6), pp. 1324-1343, 2012). […]

[3] = system: rat BLM induced lung fibrosis model; settings: in vivo, 400 mg/kg
Description: For Groups 4, 5, 6, and 7, bleomycin and vehicle dosing were conducted as indicated in Table 28 (0.45 mg/kg, at 1696 IU/mg of Bleomycin or saline on Day 1, 2, 3, 6 and 7).

[4] = LYT-100 500 mg BID 3 days then 750 mg BID
[5] = deupirfenidone 550 mg TID, N=65
[6] = deupirfenidone 825 mg TID, N=63
[7] = deupirfenidone 825 mg TID, N=63, listed as Deupirfenidone
[8] = deupirfenidone 825 mg TID, N=63, listed as deupirfenidone

SMILES: [2H]C([2H])([2H])c1ccc(=O)n(-c2ccccc2)c1 [LYT-100, 5-(methyl-d3)-1-phenylpyridin-2-(1H)-one]
- half-life (CYP1A2): 9.08 h
- drug-related serious adverse events or deaths [1]: no drug-related serious adverse events (SAEs) or deaths
- discontinuation rate due to AEs at least possibly related [1, 4]: 8.6%
- dizziness, AE at least possibly related, incidence [1, 4]: 3.3%
- fatigue, AE at least possibly related, incidence [1, 4]: 2.2%
- headache, AE at least possibly related, incidence [1, 4]: 4.3%
- nausea, AE at least possibly related, incidence [1, 4]: 8.7%
- rash, AE at least possibly related, incidence [1, 4]: 3.3%
- Dyspepsia, treatment emergent AE, events ([1]; LYT-100 750 mg BID): 6 Events
- Dyspepsia, treatment emergent AE, subjects ([1]; LYT-100 750 mg BID): 6 (6.5) N (%)
- Headache, treatment emergent AE, events ([1]; LYT-100 750 mg BID): 5 Events
- Headache, treatment emergent AE, subjects ([1]; LYT-100 750 mg BID): 5 (5.4) N (%)
- Increase in Fibrin D Dimer, treatment emergent AE, events ([1]; LYT-100 750 mg BID): 6 Events
- Increase in Fibrin D Dimer, treatment emergent AE, subjects ([1]; LYT-100 750 mg BID): 5 (5.4) N (%)
- Nasopharyngitis, treatment emergent AE, events ([1]; LYT-100 750 mg BID): 7 Events
- Nasopharyngitis, treatment emergent AE, subjects ([1]; LYT-100 750 mg BID): 6 (6.5) N (%)
- Nausea, treatment emergent AE, events ([1]; LYT-100 750 mg BID): 10 Events
- Nausea, treatment emergent AE, subjects ([1]; LYT-100 750 mg BID): 8 (8.7) N (%)
- Upper abdominal pain, treatment emergent AE, events ([1]; LYT-100 750 mg BID): 6 Events
- Upper abdominal pain, treatment emergent AE, subjects ([1]; LYT-100 750 mg BID): 5 (5.4) N (%)
- FVC, Bayesian Posterior Mean Difference vs. Placebo ([2]; deupirfenidone 550 mg TID): 34.1 mL
- FVC, Frequentist Adjusted Mean Difference vs. Placebo ([2]; deupirfenidone 550 mg TID): 31.8 mL
- FVCpp, Bayesian Posterior Mean comparison vs. Placebo ([2]; deupirfenidone 550 mg TID): 1.47
- FVCpp, Frequentist Adjusted Mean comparison vs. Placebo ([2]; deupirfenidone 550 mg TID): 1.62
- Treatment effect, FVC, versus placebo ([2]; deupirfenidone 550 mg TID): 28.3%
- Treatment effect, FVCpp, versus placebo ([2]; deupirfenidone 550 mg TID): 47.2%
- FVC, Bayesian Posterior Mean Difference vs. Placebo ([2]; deupirfenidone 825 mg TID): 90.9 mL
- FVC, Frequentist Adjusted Mean Difference vs. Placebo ([2]; deupirfenidone 825 mg TID): 91.0 mL
- FVCpp, Bayesian Posterior Mean comparison vs. Placebo ([2]; deupirfenidone 825 mg TID): 2.85
- FVCpp, Frequentist Adjusted Mean comparison vs. Placebo ([2]; deupirfenidone 825 mg TID): 3.00
- Treatment effect, FVC, versus placebo ([2]; deupirfenidone 825 mg TID): 80.9%
- Treatment effect, FVCpp, versus placebo ([2]; deupirfenidone 825 mg TID): 87.5%
- Treatment effect, FVC, versus placebo ([2]; deupirfenidone 825 mg TID, listed as Deupirfenidone): 80.9%
- Treatment effect, FVC, versus placebo ([2]; deupirfenidone 825 mg TID, listed as deupirfenidone): 80.9%
- 6-month FVC decline compared with healthy older adults ([2]; LYT-100 825 mg TID (FIG. 45)): in line with that seen for healthy adults >60 years
- Cohen's D, FVC ([2]; deupirfenidone 550 mg TID): 0.14
- Cohen's D, FVCpp ([2]; deupirfenidone 550 mg TID): 0.23
- Change from Baseline in FVC over 26 Weeks, Bayesian Posterior Mean (SE) [2, 5]: −76.7 (28.60) mL
- Change from Baseline in FVC over 26 Weeks, Frequentist Adjusted Mean (SE) [2, 5]: −80.7 (29.32) mL
- Change from Baseline in FVCpp over 26 Weeks, Bayesian Posterior Mean (SE) [2, 5]: −1.80 (0.88)
- Change from Baseline in FVCpp over 26 Weeks, Frequentist Adjusted Mean (SE) [2, 5]: −1.81 (0.886)
- Cohen's D, FVC ([2]; deupirfenidone 825 mg TID): 0.40
- Cohen's D, FVCpp ([2]; deupirfenidone 825 mg TID): 0.44
- Change from Baseline in FVC over 26 Weeks, Bayesian Posterior Mean (SE) [2, 6]: −19.9 (28.29) mL
- Change from Baseline in FVCpp over 26 Weeks, Bayesian Posterior Mean (SE) [2, 6]: −0.42 (0.88)
- Change from Baseline in FVC over 26 Weeks, Frequentist Adjusted Mean (SE) [2, 7]: −21.5 (28.86) mL
- Change from Baseline in FVCpp over 26 Weeks, Frequentist Adjusted Mean (SE) [2, 7]: −0.43 (0.872)
- Change from Baseline in FVC over 26 Weeks, Frequentist Adjusted Mean (SE) [2, 8]: -21.5 mL
- Change from Baseline in FVCpp over 26 Weeks, Frequentist Adjusted Mean (SE) [2, 8]: −0.43
- tolerability [3]: well tolerated
